# “Also recorded” adds a separate entry of the source.
# Assays:
# [1] = molecular target: CB1 (Homo sapiens, UniProt P21554); settings: cited from earlier work
# [2] = molecular target: CB2 (Homo sapiens, UniProt P34972); settings: cited from earlier work
# [3] = test system: cannabinoid receptors; settings: cited from earlier work
# [4] = Solubilities of pigments in diluents, terpenes and cannabinoids; settings: in OBP (dipropylene glycol), nexus, terpenes, cannabinoids
# Text: Solubilities of Pigments. The present disclosure encompasses solubility embodiments.
# [5] = test system: cannabinoid receptors; settings: cited from earlier work; remark: listed apart in the source
# CB1, sequence (P21554 whole entry, species assumed): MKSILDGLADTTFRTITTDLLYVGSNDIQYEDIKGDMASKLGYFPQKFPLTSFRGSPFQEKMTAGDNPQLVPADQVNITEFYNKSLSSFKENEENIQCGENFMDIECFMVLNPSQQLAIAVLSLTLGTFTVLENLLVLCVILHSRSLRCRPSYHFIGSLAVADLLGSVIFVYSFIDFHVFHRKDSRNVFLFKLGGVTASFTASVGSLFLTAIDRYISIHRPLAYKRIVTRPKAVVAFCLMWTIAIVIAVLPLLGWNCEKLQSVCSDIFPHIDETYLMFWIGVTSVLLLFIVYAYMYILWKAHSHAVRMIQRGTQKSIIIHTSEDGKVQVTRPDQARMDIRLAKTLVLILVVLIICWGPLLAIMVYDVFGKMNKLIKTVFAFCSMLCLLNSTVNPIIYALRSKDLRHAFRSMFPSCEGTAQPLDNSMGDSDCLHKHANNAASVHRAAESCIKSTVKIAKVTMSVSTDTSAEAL
# CB2, sequence (P34972 whole entry, species assumed): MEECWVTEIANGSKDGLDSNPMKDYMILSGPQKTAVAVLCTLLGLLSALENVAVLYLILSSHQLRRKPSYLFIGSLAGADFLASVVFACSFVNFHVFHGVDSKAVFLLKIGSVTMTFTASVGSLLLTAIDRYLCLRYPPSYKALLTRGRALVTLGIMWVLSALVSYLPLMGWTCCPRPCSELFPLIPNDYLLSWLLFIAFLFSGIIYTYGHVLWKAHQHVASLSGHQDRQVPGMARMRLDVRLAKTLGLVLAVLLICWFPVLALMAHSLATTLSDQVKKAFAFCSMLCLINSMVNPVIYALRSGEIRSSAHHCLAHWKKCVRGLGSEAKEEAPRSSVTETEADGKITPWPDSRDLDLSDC
Molecule,binding to CB1 [1],binding to CB2 [2],potentiation of binding of 2-arachidonoyl-glycerol [3],solubility of pigment [4],potentiation of activity of ligands of cannabinoid receptors [5]
CCCCC/C=C\C/C=C\CCCCCCCC(=O)OC(CO)CO [2-linoleoyl-glycerol],do not bind,do not bind,potentiate the binding of 2-arachidonoyl-glycerol,–,–
CCCCCCCCCCCCCCCC(=O)OC(CO)CO [2-palmitoyl-glycerol],do not bind,do not bind,potentiate the binding of 2-arachidonoyl-glycerol,–,–
CC1=C[C@H](O)CC(C)(C)[C@H]1/C=C/C(C)=C/C=C/C(C)=C/C=C/C=C(C)/C=C/C=C(C)/C=C/C1=C(C)C[C@@H](O)CC1(C)C [Lutein],–,–,–,"soluble in both obp, nexus, terpenes, and cannabinoids",–
CCCCCCCCCCCCCCCC(=O)NCCO [palmitoylethanolamine],do not bind,do not bind,–,–,potentiate activity of ligands of cannabinoid receptors
CCCCCCCCCCCCCCCCCC(=O)NCCO [stearoylethanolamine],do not bind,do not bind,–,–,potentiate activity of ligands of cannabinoid receptors
Anthocyanins,–,–,–,"only soluble in OBP (dipropylene glycol), not it nexus or cannabinoids alone; also recorded: only soluble in dipropylene glycol (i.e. OBP), not in nexus or cannabinoids alone",–
carotene,–,–,–,"soluble in both obp, nexus, terpenes, and cannabinoids",–
